The values that follow come from PMC12435405.

The data set in a line: Double CuAAC of unprotected bis-azido peptide with triethynylphosphine oxide (1.2 eq), CuBr 10 eq, THPTA 20 eq; two-component cyclisation to ethynyl-ditriazolyl-phosphine oxide (EDPO) cyclic peptide; forms two 1,4-triazoles. Conditions: the molecule shown is the open-chain precursor, NaOAc buffer (100 mM, pH 5)/MeCN 20%, ~2% DMSO, 1.0 mM, 25.0 °C, 0.083 h.

`CC(=O)N[C@@H](CCC(=O)O)C(=O)N[C@H](C(=O)N[C@@H](Cc1ccccc1)C(=O)N[C@@H](CCCCN=[N+]=[N-])C(=O)N[C@@H](CC(=O)O)C(=O)N[C@@H](CC(C)C)C(=O)N[C@@H](Cc1c[nH]c2ccccc12)C(=O)N[C@@H](CCCNC(=N)N)C(=O)N[C@@H](CC(C)C)C(=O)N[C@@H](CC(C)C)C(=O)N[C@@H](CCCCN=[N+]=[N-])C(=O)N[C@@H](CCC(=O)O)C(=O)N[C@@H](CC(N)=O)C(N)=O)[C@@H](C)O` displayed a ring closure, isolated yield (37-membered ring) of 24%.
On to `CC(C)C[C@H](NC(=O)CN=[N+]=[N-])C(=O)N[C@@H](Cc1ccc(O)cc1)C(=O)N[C@@H](CCCNC(=N)N)C(=O)N[C@@H](C)C(=O)N[C@@H](CCCCN=[N+]=[N-])C(N)=O` [N3-Gly(azidoacetyl)-Leu-Tyr-Arg-Ala-Lys(N3)-NH2], for which the ring closure, isolated yield (27-membered ring) turned out to be 39%.
For the compound `[N-]=[N+]=NCCCC[C@H](NC(=O)[C@H](Cc1ccc(O)cc1)NC(=O)[C@H](CC(=O)O)NC(=O)CNC(=O)[C@H](CCCNC(=N)N)NC(=O)[C@H](CCCCN)NC(=O)CN=[N+]=[N-])C(N)=O` [N3-Gly(azidoacetyl)-Lys-Arg-Gly-Asp-Tyr-Lys(N3)-NH2], under “30-membered ring”, the ring closure, isolated yield is 41%.
As for `[N-]=[N+]=NCCCC[C@H](NC(=O)CN)C(=O)N[C@@H](CCCNC(=N)N)C(=O)N[C@@H](CCCNC(=N)N)C(=O)N[C@@H](CCCNC(=N)N)C(=O)N[C@@H](CCCNC(=N)N)C(=O)N[C@@H](CCCNC(=N)N)C(=O)N[C@@H](CCCNC(=N)N)C(=O)N[C@@H](CCCNC(=N)N)C(=O)N[C@@H](CCCNC(=N)N)C(=O)N[C@@H](CCCCN=[N+]=[N-])C(=O)NCC(N)=O`, the ring closure, isolated yield (43-membered ring) is 27%.
As for `[N-]=[N+]=NCCCC[C@H](NC(=O)CN)C(=O)N[C@@H](CCCNC(=N)N)C(=O)N[C@@H](CCCNC(=N)N)C(=O)N[C@@H](CCCNC(=N)N)C(=O)N[C@@H](CCCNC(=N)N)C(=O)N[C@@H](CCCNC(=N)N)C(=O)N[C@@H](CCCNC(=N)N)C(=O)N[C@@H](CCCNC(=N)N)C(=O)N[C@@H](CCCNC(=N)N)C(=O)N[C@@H](CCCNC(=N)N)C(=O)N[C@@H](CCCNC(=N)N)C(=O)N[C@@H](CCCCN=[N+]=[N-])C(=O)NCC(N)=O`, the ring closure, isolated yield (49-membered ring) was found to be 18%.
In turn, `[N-]=[N+]=NCCCC[C@H](NC(=O)[C@@H](CCCNC(=N)N)NC(=O)[C@H](CCCNC(=N)N)NC(=O)[C@@H](CCCCN)NC(=O)[C@H](CCCCN)NC(=O)[C@@H](CCCNC(=N)N)NC(=O)CNC(=O)[C@@H](CCCNC(=N)N)NC(=O)[C@H](CCCNC(=N)N)NC(=O)[C@@H](CCCNC(=N)N)NC(=O)[C@@H](N)CCCCN=[N+]=[N-])C(N)=O` yielded a ring closure, isolated yield (46-membered ring) of 39%.
